Data taken from PubChem BioAssay AID256 (DTP/NCI, 2004).
Toxic doses and inconclusive results are not listed.

System: CD2F1 mice, L1210 leukemia ip, survival T/C
Experiment: NCI In Vivo Anticancer Drug Screen. Data for tumor model L1210 Leukemia (intraperitoneal) in CD2F1 (CDF1) mice
Details: higher = longer survival
In short: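 Tumor-bearing mice (transplanted tumor) were split into treated and vehicle control groups, and the measured endpoint of each treated group was divided by that of its vehicle controls.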

[1] = endpoint: mean survival time, dose: 50.0 mg/kg/injection, schedule: Q04DX002 (ip), vehicle: saline with Tween-80
[2] = endpoint: mean survival time, dose: 100.0 mg/kg/injection, schedule: Q04DX002 (ip), vehicle: saline with Tween-80
[3] = endpoint: mean survival time, dose: 100.0 mg/kg/injection, schedule: Q04DX003 (ip), vehicle: saline

**Q.** What does the source list for `C[CH2][Sn]([Cl])([CH2]C)[c]1cc[c]([Sn]([Cl])([CH2]C)[CH2]C)cc1`?
**A.** T/C (endpoint: median survival time, dose: 0.06 mg/kg/injection, schedule: Q01DX005 (ip), vehicle: Klucel (hydroxypropylcellulose) (HPC)): 103 % of control; T/C (endpoint: median survival time, dose: 0.12 mg/kg/injection, schedule: Q01DX005 (ip), vehicle: Klucel (hydroxypropylcellulose) (HPC)): 112 % of control; T/C (endpoint: median survival time, dose: 3.8 micrograms/kg/injection, schedule: Q01DX005 (ip), vehicle: Klucel (hydroxypropylcellulose) (HPC)): 103 % of control; T/C (endpoint: median survival time, dose: 7.5 micrograms/kg/injection, schedule: Q01DX005 (ip), vehicle: Klucel (hydroxypropylcellulose) (HPC)): 100 % of control; T/C (endpoint: median survival time, dose: 15.0 micrograms/kg/injection, schedule: Q01DX005 (ip), vehicle: Klucel (hydroxypropylcellulose) (HPC)): 102 % of control; T/C (endpoint: median survival time, dose: 30.0 micrograms/kg/injection, schedule: Q01DX005 (ip), vehicle: Klucel (hydroxypropylcellulose) (HPC)): 98 % of control; T/C (endpoint: median survival time, dose: 60.0 micrograms/kg/injection, schedule: Q01DX005 (ip), vehicle: Klucel (hydroxypropylcellulose) (HPC)): 103 % of control; T/C (endpoint: median survival time, dose: 120.0 micrograms/kg/injection, schedule: Q01DX005 (ip), vehicle: Klucel (hydroxypropylcellulose) (HPC)): 109 % of control

**Q.** With `c1ccc(C[S][Sn]([c]2ccccc2)([c]2ccccc2)[c]2ccccc2)cc1` as the molecule, how does the T/C (endpoint: mean survival time, dose: 25.0 mg/kg/injection, schedule: Q04DX002 (ip), vehicle: saline with Tween-80) read?
**A.** 91 % of control

**Q.** And the T/C [1]?
**A.** 102 % of control

**Q.** And the T/C [2]?
**A.** 94 % of control

**Q.** `Cc1[nH]nc2[nH]cnc(=S)c12` was tested. Which T/C (endpoint: mean survival time, dose: 12.5 mg/kg/injection, schedule: Q01DX005 (ip), vehicle: saline with Tween-80) did it give?
**A.** 90 % of control

**Q.** And the T/C (endpoint: mean survival time, dose: 25.0 mg/kg/injection, schedule: Q01DX005 (ip), vehicle: saline with Tween-80)?
**A.** 88 % of control

**Q.** And the T/C (endpoint: mean survival time, dose: 50.0 mg/kg/injection, schedule: Q01DX005 (ip), vehicle: saline with Tween-80)?
**A.** 87 % of control

**Q.** What about the T/C (endpoint: mean survival time, dose: 100.0 mg/kg/injection, schedule: Q01DX005 (ip), vehicle: saline with Tween-80) of the same molecule?
**A.** 94 % of control

**Q.** And the T/C (endpoint: mean survival time, dose: 200.0 mg/kg/injection, schedule: Q01DX005 (ip), vehicle: saline with Tween-80)?
**A.** 96 % of control

**Q.** For `O=C(N/N=C/c1ccc(Cl)cc1)C(O)(c1ccccc1)c1ccccc1`, which T/C (endpoint: mean survival time, dose: 25.0 mg/kg/injection, schedule: Q01DX009 (ip), vehicle: saline with Tween-80) is on record?
**A.** 102 % of control

**Q.** And the T/C (endpoint: mean survival time, dose: 50.0 mg/kg/injection, schedule: Q01DX009 (ip), vehicle: saline with Tween-80)?
**A.** 91 % of control

**Q.** What about the T/C (endpoint: mean survival time, dose: 100.0 mg/kg/injection, schedule: Q01DX009 (ip), vehicle: saline with Tween-80) of the same molecule?
**A.** 96 % of control

**Q.** With `Nc1ccc(OCc2nc(N)nc(N)c2-c2ccc(Cl)cc2)cc1` as the molecule, how does the T/C (endpoint: mean survival time, dose: 50.0 mg/kg/injection, schedule: Q01DX001 (ip), vehicle: saline with Tween-80) read?
**A.** 95 % of control

**Q.** What about the T/C (endpoint: mean survival time, dose: 100.0 mg/kg/injection, schedule: Q01DX001 (ip), vehicle: saline with Tween-80) of the same molecule?
**A.** 101 % of control

**Q.** And the T/C (endpoint: mean survival time, dose: 200.0 mg/kg/injection, schedule: Q01DX001 (ip), vehicle: saline with Tween-80)?
**A.** 93 % of control

**Q.** With `O=C(Oc1ccn(C2OC(CO)C(O)C2O)c(=O)c1)C12CC3CC(CC(C3)C1)C2` (stereo not given) as the molecule, how does the T/C (endpoint: median survival time, dose: 20.0 mg/kg/injection, schedule: Q01DX009 (ip), vehicle: saline + Tween-80 + alcohol) read?
**A.** 153 % of control

**Q.** And the T/C (endpoint: median survival time, dose: 30.0 mg/kg/injection, schedule: Q01DX009 (ip), vehicle: saline + Tween-80 + alcohol)?
**A.** 170 % of control

**Q.** What about the T/C (endpoint: median survival time, dose: 45.0 mg/kg/injection, schedule: Q01DX009 (ip), vehicle: saline + Tween-80 + alcohol) of the same molecule?
**A.** 158 % of control

**Q.** Which T/C (endpoint: mean survival time, dose: 25.0 mg/kg/injection, schedule: Q04DX003 (ip), vehicle: saline) does the source give for `CCCCCCCCCCP(=O)(OCCCC)OCCCC` here?
**A.** 102 % of control

**Q.** What about the T/C (endpoint: mean survival time, dose: 50.0 mg/kg/injection, schedule: Q04DX003 (ip), vehicle: saline) of the same molecule?
**A.** 102 % of control

**Q.** What about the T/C [3] of the same molecule?
**A.** 100 % of control

**Q.** How did the T/C (endpoint: mean survival time, dose: 100.0 mg/kg/injection, schedule: Q04DX003 (ip), vehicle: saline with Tween-80) turn out when `Clc1ccccc1/C=C1\c2ccccc2-c2nc3ccccc3nc21` was run?
**A.** 109 % of control

**Q.** And the T/C (endpoint: mean survival time, dose: 200.0 mg/kg/injection, schedule: Q04DX003 (ip), vehicle: saline with Tween-80)?
**A.** 103 % of control

**Q.** What about the T/C (endpoint: mean survival time, dose: 400.0 mg/kg/injection, schedule: Q04DX003 (ip), vehicle: saline with Tween-80) of the same molecule?
**A.** 97 % of control

**Q.** With `O=[N+]([O-])c1ccc(Cl)c(CNc2ncnc3c2ncn3C2CCCCO2)c1` (stereo not given) as the molecule, how does the T/C (endpoint: mean survival time, dose: 100.0 mg/kg/injection, schedule: Q01DX009 (ip), vehicle: acetone) read?
**A.** 95 % of control

**Q.** And the T/C (endpoint: mean survival time, dose: 200.0 mg/kg/injection, schedule: Q01DX009 (ip), vehicle: acetone)?
**A.** 97 % of control

**Q.** And the T/C (endpoint: mean survival time, dose: 400.0 mg/kg/injection, schedule: Q01DX009 (ip), vehicle: acetone)?
**A.** 93 % of control

**Q.** With `Nc1ccc(N=Nc2ccccc2)c(N)c1` as the molecule, how does the T/C [3] read?
**A.** 97 % of control

**Q.** What about the T/C (endpoint: mean survival time, dose: 200.0 mg/kg/injection, schedule: Q04DX003 (ip), vehicle: saline) of the same molecule?
**A.** 90 % of control

**Q.** What about the T/C (endpoint: mean survival time, dose: 400.0 mg/kg/injection, schedule: Q04DX003 (ip), vehicle: saline) of the same molecule?
**A.** 100 % of control

**Q.** With `CN1CC2C3CCC(C3)C2(C)C1O` (stereo not given) as the molecule, how does the T/C [1] read?
**A.** 103 % of control

**Q.** And the T/C [2]?
**A.** 103 % of control

**Q.** What about the T/C (endpoint: mean survival time, dose: 200.0 mg/kg/injection, schedule: Q04DX002 (ip), vehicle: saline with Tween-80) of the same molecule?
**A.** 87 % of control
